Consider 14 compounds from US9096615B2, “Bridged bicyclic amino thiazine dioxide compounds as inhibitors of beta-secretase and methods of use thereof” (AMGEN INC., priority 2013, dated 2015).

pIC50: −log10 of the molar value.

For assay [1], the system named is Aβ40 in conditioned medium of cells stably expressing Amyloid Precursor Protein (APP). Put plainly: In vitro BACE cell-based assay (HEK cell assay, Aβ40 sandwich ELISA). To be noted: Homo sapiens, HEK293; average IC50; read-out: BACE1 cell assay IC50. The method in brief: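 IC50 was derived from percent-of-control Aβ40 against concentration, with Aβ40 quantified by time-resolved fluorescence ELISA (pAb40/6E10-biotin, 4 °C incubations). Supernatants were sampled after 24 h of compound exposure (10 points, starting 100 or 10 μM, 0.1% DMSO) of cells stably expressing APP.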

A further assay concerns the target T1, Cathepsin D (Cat D) (Homo sapiens, UniProt P07339).
T1 construct: made in house; host or cells: CHO cells
Put plainly: In vitro enzymatic Cathepsin D (Cat D) FRET assay. The format is biochemical. The following applies: average IC50; first procedure; read-out: CatD IC50. The method, boiled down:
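Fluorescence (500 nm excitation, 580 nm emission) was measured after Tris quench of a 1 h cleavage of 20 nM quenched peptide substrate. Before that, 9 nM CHO-expressed human Cat D sat with compound for 1 h at pH 3.5 (0.05 M citrate, 5 mM CHAPS, 10% DMSO final).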

The next assay deals with BACE1 (Homo sapiens, UniProt P56817). The assay can be described thus: In vitro enzymatic BACE FRET assay. Type of assay: biochemical. The following applies: average IC50; read-out: BACE1 Enzyme assay IC50. The method in brief:
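Fluorescence (excitation 488 nm, […]) from cleavage of quenched peptide substrate (50 nM), reaction run 1 h after 1 h enzyme–inhibitor pre-incubation, then neutralised with Tris. Conditions: 0.2 nM enzyme, pH 4.2 acetate 0.05 M, 10% DMSO final, 100 uM genapol.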

Another assay addresses T2, human Bace2 protein (Homo sapiens, UniProt Q9Y5Z0).
T2 construct: V5 (C); 6-His (C)
T2 sequence (Q9Y5Z0 63-518): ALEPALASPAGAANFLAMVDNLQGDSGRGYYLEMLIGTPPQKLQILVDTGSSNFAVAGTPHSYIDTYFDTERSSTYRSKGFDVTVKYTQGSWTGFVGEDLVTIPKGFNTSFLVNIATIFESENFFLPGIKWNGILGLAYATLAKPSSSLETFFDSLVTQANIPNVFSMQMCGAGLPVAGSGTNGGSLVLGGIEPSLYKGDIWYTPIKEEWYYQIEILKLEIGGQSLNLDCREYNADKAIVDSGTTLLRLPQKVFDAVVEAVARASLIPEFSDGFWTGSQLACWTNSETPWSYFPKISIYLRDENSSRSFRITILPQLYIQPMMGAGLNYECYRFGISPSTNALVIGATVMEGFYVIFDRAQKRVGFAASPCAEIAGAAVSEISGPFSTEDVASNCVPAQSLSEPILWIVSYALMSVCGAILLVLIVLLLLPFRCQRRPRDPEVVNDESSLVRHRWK
The assay can be described thus: In vitro enzymatic BACE2 FRET assay. The format is biochemical. The following applies: average IC50; read-out: BACE2 Enzyme assay IC50. The procedure: In Vitro Enzymatic BACE2 FRET (Fluorescence Resonance Energy Transfer) Assay
Enzyme Assay Data in the Table 3
The assay buffer used in this screen is 0.05 M acetate, pH 4.2, 10% DMSO final, 100 uM genapol (which is a nonionic detergent, below its Critical Micelle Concentration). The Beta Secretase2 enzyme (human Bace2 protein with C-terminal V5 and 6-His tag; 0.2 nM) is pre-incubated for one hour with inhibitors, typically in about 1 uL of DMSO according to a serial dilution, are added thereto. This assay is effectively started by the addition of FRET substrate (50 nM) and the combination is incubated for one hour. Final assay concentration of about 0.64 nM. The FRET assay is terminated with by addition of Tris buffer, which raises the pH to neutrality, and the fluorescence is determined. The FRET substrate is a peptide with commercially available fluorophore and quencher, on opposite sides of the BACE cleavage site. Proteolytic cleavage of the FRET substrate releases quenching of fluorescence (excitation 488 nm and […]).

Sequence of BACE1 (P56817 46-501, species assumed): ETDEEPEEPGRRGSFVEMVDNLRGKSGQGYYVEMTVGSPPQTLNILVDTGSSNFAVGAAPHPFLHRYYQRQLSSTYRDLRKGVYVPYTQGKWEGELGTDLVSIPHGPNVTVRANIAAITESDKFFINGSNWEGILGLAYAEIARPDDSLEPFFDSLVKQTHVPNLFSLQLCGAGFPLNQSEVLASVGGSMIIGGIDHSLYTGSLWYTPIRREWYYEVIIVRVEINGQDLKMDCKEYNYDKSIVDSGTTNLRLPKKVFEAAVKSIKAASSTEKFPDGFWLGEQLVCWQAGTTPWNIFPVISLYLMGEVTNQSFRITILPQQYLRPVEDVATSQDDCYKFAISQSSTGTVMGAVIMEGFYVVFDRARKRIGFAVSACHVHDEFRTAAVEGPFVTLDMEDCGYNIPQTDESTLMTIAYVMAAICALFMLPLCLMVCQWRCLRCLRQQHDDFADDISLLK
T1 sequence (P07339 65-412, species assumed): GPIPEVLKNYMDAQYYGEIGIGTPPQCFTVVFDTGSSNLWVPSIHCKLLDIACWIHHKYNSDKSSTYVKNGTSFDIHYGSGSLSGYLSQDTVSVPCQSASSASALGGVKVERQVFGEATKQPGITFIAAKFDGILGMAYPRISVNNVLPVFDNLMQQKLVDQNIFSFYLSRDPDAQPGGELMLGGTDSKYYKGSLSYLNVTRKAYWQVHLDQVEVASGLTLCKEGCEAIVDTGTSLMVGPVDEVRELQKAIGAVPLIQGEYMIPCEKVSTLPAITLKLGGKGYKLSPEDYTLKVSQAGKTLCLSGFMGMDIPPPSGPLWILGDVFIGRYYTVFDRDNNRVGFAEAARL

Consider `C#C[C@H](C)Oc1cnc(C(=O)Nc2ccc(F)c([C@@]3(C)N=C(N)[C@@]4(CF)CC[C@@H]3S4(=O)=O)c2)cn1` [Example 45, N-(3-((1S,2R,5R)-4-amino-5-(fluoromethyl)-2-methyl-8,8-dioxido-8-thia-3-azabicyclo[3.2.1]oct-3-en-2-yl)-4-fluorophenyl)-5-(((1S)-1-methyl-2-propyn-1-yl)oxy)-2-pyrazinecarboxamide], for which the pIC50 is 8.52 in assay [1], 3.22 on Cathepsin D (Cat D), 8.52 at BACE1 and 7.72 at human Bace2 protein.
For the compound `C#CCOc1cnc2c(Nc3ccc(F)c([C@@]4(C)N=C(N)[C@@]5(CF)CC[C@@H]4S5(=O)=O)c3)nccc2n1` [Example 46, N-(3-((1S,2R,5R)-4-amino-5-(fluoromethyl)-2-methyl-8,8-dioxido-8-thia-3-azabicyclo[3.2.1]oct-3-en-2-yl)-4-fluorophenyl)-2-(2-propyn-1-yloxy)pyrido[3,4-b]pyrazin-5-amine], the negative-log IC50 (pIC50) was 8.30 in assay [1], 3.00 on Cathepsin D (Cat D), 9.00 on BACE1 and 8.05 at human Bace2 protein.
The corresponding values for `C[C@]1(c2cc(Nc3ncnc4cc(Br)cnc34)ccc2F)N=C(N)[C@@]2(CF)CC[C@@H]1S2(=O)=O` [Example 47, N-(3-((1S,2R,5R)-4-amino-5-(fluoromethyl)-2-methyl-8,8-dioxido-8-thia-3-azabicyclo[3.2.1]oct-3-en-2-yl)-4-fluorophenyl)-7-bromopyrido[3,2-d]pyrimidin-4-amine] are 7.44, 3.76, 8.15 and 8.70.
Consider `C[C@]1(c2cc(Nc3ncc(F)c4cc(C#N)cnc34)ccc2F)N=C(N)[C@@]2(CF)CC[C@@H]1S2(=O)=O` [Example 53, 8-((3-((1S,2R,5R)-4-amino-5-(fluoromethyl)-2-methyl-8,8-dioxido-8-thia-3-azabicyclo[3.2.1]oct-3-en-2-yl)-4-fluorophenyl)amino)-5-fluoro-1,7-naphthyridine-3-carbonitrile], for which the pIC50 was 7.42 in assay [1], below 4.83 on Cathepsin D (Cat D), 8.52 at BACE1 and 8.70 at human Bace2 protein.
The corresponding values for `C[C@]1(c2cc(Nc3ncc(F)c4cc(Cl)cnc34)ccc2F)N=C(N)[C@@]2(CF)CC[C@@H]1S2(=O)=O` [Example 54, N-(3-((1S,2R,5R)-4-amino-5-(fluoromethyl)-2-methyl-8,8-dioxido-8-thia-3-azabicyclo[3.2.1]oct-3-en-2-yl)-4-fluorophenyl)-3-chloro-5-fluoro-1,7-naphthyridin-8-amine] are 7.05, 3.12, 8.70 and 8.70.
The corresponding values for `C[C@]1(c2cc(Nc3nccc4nc(C(F)(F)F)cnc34)ccc2F)N=C(N)[C@@]2(CF)CC[C@@H]1S2(=O)=O` [Example 55, N-(3-((1S,2R,5R)-4-amino-5-(fluoromethyl)-2-methyl-8,8-dioxido-8-thia-3-azabicyclo[3.2.1]oct-3-en-2-yl)-4-fluorophenyl)-2-(trifluoromethyl)pyrido[3,4-b]pyrazin-5-amine] are 6.45, below 3.88, 7.74 and 7.62.
The corresponding values for `Cc1nc(OCC(F)(F)F)cnc1C(=O)Nc1ccc(F)c([C@@]2(C)N=C(N)[C@@]3(CF)CC[C@@H]2S3(=O)=O)c1` [Example 57, N-(3-((1S,2R,5R)-4-amino-5-(fluoromethyl)-2-methyl-8,8-dioxido-8-thia-3-azabicyclo[3.2.1]oct-3-en-2-yl)-4-fluorophenyl)-3-methyl-5-(2,2,2-trifluoroethoxy)-2-pyrazinecarboxamide] are 7.32, below 3.40, 8.52 and 7.12.
For `C[C@]1(c2cc(Nc3nccc4cc(Cl)cnc34)ccc2F)N=C(N)[C@@]2(CF)CC[C@@H]1S2(=O)=O` [Example 58, N-(3-((1S,2R,5R)-4-amino-5-(fluoromethyl)-2-methyl-8,8-dioxido-8-thia-3-azabicyclo[3.2.1]oct-3-en-2-yl)-4-fluorophenyl)-3-chloro-1,7-naphthyridin-8-amine], the pIC50 in assay [1] is 7.34; at Cathepsin D (Cat D), 3.47; on BACE1, 9.00; on human Bace2 protein, 8.70.
For the compound `C#CCOc1cnc(C(=O)Nc2ccc(F)c([C@@]3(C)N=C(N)[C@@]4(CF)CC[C@@H]3S4(=O)=O)c2)c(Cl)c1` [Example 60, N-(3-((1S,2R,5R)-4-amino-5-(fluoromethyl)-2-methyl-8,8-dioxido-8-thia-3-azabicyclo[3.2.1]oct-3-en-2-yl)-4-fluorophenyl)-3-chloro-5-(2-propyn-1-yloxy)-2-pyridinecarboxamide], the pIC50 in assay [1] was 8.10; at Cathepsin D (Cat D) it was 3.02; on BACE1, 9.00; on human Bace2 protein, 8.00.
The corresponding values for `CC#CCOc1cnc2c(Nc3ccc(F)c([C@@]4(C)N=C(N)[C@@]5(C)CC[C@@H]4S5(=O)=O)c3)nccc2n1` [Example 62, N-(3-((1S,2R,5R)-4-amino-2,5-dimethyl-8,8-dioxido-8-thia-3-azabicyclo[3.2.1]oct-3-en-2-yl)-4-fluorophenyl)-2-(2-butyn-1-yloxy)pyrido[3,4-b]pyrazin-5-amine] are 9.00, 3.91, 9.00 and 8.15.
For the compound `CC#CCOc1cnc2c(Nc3ccc(F)c([C@@]4(C)N=C(N)[C@]5(C)CC[C@H]4S5(=O)=O)c3)nccc2n1` [Example 63, N-(3-((1R,2R,5S)-4-amino-2,5-dimethyl-8,8-dioxido-8-thia-3-azabicyclo[3.2.1]oct-3-en-2-yl)-4-fluorophenyl)-2-(2-butyn-1-yloxy)pyrido[3,4-b]pyrazin-5-amine], the pIC50 in assay [1] is 8.70; at Cathepsin D (Cat D) it was 2.93; at BACE1, 8.52; on human Bace2 protein, 6.49.
The corresponding values for `CC#C[C@@H](C)Oc1cnc(C(=O)Nc2ccc(F)c([C@@]3(C)N=C(N)[C@@]4(C)CC[C@@H]3S4(=O)=O)c2)cn1` [Example 70, N-(3-((1S,2R,5R)-4-amino-2,5-dimethyl-8,8-dioxido-8-thia-3-azabicyclo[3.2.1]oct-3-en-2-yl)-4-fluorophenyl)-5-(((1R)-1-methyl-2-butyn-1-yl)oxy)-2-pyrazinecarboxamide] are 8.15, below 3.40, 7.85 and 7.30.
In the case of `CC#C[C@H](C)Oc1cnc(C(=O)Nc2ccc(F)c([C@@]3(C)N=C(N)[C@@]4(C)CC[C@@H]3S4(=O)=O)c2)cn1` [Example 71, N-(3-((1S,2R,5R)-4-amino-2,5-dimethyl-8,8-dioxido-8-thia-3-azabicyclo[3.2.1]oct-3-en-2-yl)-4-fluorophenyl)-5-(((1S)-1-methyl-2-butyn-1-yl)oxy)-2-pyrazinecarboxamide], the pIC50 was 10.00 in assay [1], below 3.40 at Cathepsin D (Cat D), 8.52 at BACE1 and 8.10 at human Bace2 protein.
The corresponding values for `CC#CCOc1cnc(C(=O)Nc2ccc(F)c([C@@]3(C)N=C(N)[C@]4(C)CC[C@H]3S4(=O)=O)c2)cn1` [Example 83, N-(3-((1R,2R,5S)-4-amino-2,5-dimethyl-8,8-dioxido-8-thia-3-azabicyclo[3.2.1]oct-3-en-2-yl)-4-fluorophenyl)-5-(2-butyn-1-yloxy)-2-pyrazinecarboxamide] are 9.30, 2.96, 9.00 and 7.09.
